For one data set, the system named is Serratia marcescens 274. Nature of the data set: Protection ability against systemic infection. Format: in vivo, ICR mice. The settings on record: iv, 168 h, i.p. infection, i.v. compound 1 hour later, survival at 1 week. How it is done: (§1) Protection ability against systemic infection was determined as follows. An aqueous suspension of test bacteria was intraperitoneally injected into 10 four week old ICR mice. One hour after the infection, test compounds were intravenously administered. The number of surviving mice was counted 1 week after injection to determine the dose at which 50% of the test animals were alive (ED50 :mg/kg).

For data set [1], the system named is Serratia marcescens IFO3759. The data set can be described thus: Antibacterial activity in vitro, agar plate dilution method (MIC). Format: cell-based. The settings on record: Mueller Hinton agar, 10^6 cells/ml, 37° C., 20 hours. How it is done:
(§2) Antibacterial activity in vitro was determined in accordance with the agar plate dilution method. A platinum loop each of test bacteria (10^6 cells/ml), cultured in Mueller Hinton broth, was inoculated on Mueller Hinton agar plates which contained test compounds at various concentrations. After cultivating at 37° C. for 20 hours, the minimum inhibitory concentration (MIC μg/ml) was determined.

Data set [2] relates to Pseudomonas aeruginosa IFO3445. Described as above. Format: cell-based. The note with it: Mueller Hinton agar, 10^6 cells/ml, 37° C., 20 hours. How it is done:
as §2

A further data set deals with Escherichia coli 67. Described as above. Format: cell-based. The settings on record: Mueller Hinton agar, 10^6 cells/ml, 37° C., 20 hours. The method, then:
as §2

The subject of data set [3] is Klebsiella pneumoniae IFO3317. The data set is described as above. Format: cell-based. The settings on record: Mueller Hinton agar, 10^6 cells/ml, 37° C., 20 hours. The method, then:
as §2

The subject of data set [4] is Staphylococcus aureus Smith. The data set is described as above. Format: cell-based. The settings on record: Mueller Hinton agar, 10^6 cells/ml, 37° C., 20 hours. How it is done:
as §2

The next data set can be described thus: LD50, Probit method. The note with it: in vivo, iv. The method, then: Next, LD50 of representative examples of the compounds of the present invention is shown in Table 3 wherein LD50 was determined in accordance with the Probit method.
Data set [5] has as its system Pseudomonas aeruginosa IFO3445. Nature of the data set: Protection ability against systemic infection. Format: in vivo, ICR mice. The settings on record: iv, 168 h, i.p. infection, i.v. compound 1 hour later, survival at 1 week. The method, then:
as §1

In data set [6] the test system is Staphylococcus aureus 242 (methicillin-resistant strain). Nature of the data set: Protection ability against systemic infection. The note with it: in Mus musculus, iv, 168 h, i.p. infection, i.v. compound 1 hour later, survival at 1 week. Format: in vivo, ICR mice. The method, then: as §1
The next data set has as its system Escherichia coli 111. The data set can be described thus: Protection ability against systemic infection. Format: in vivo, ICR mice. The note with it: Escherichia coli, 111, in Mus musculus, iv, 168 h, i.p. infection, i.v. compound 1 hour later, survival at 1 week. How it is done:
as §1

For data set [7], the system named is Bacteroides fragilis 5524. Nature of the data set: Antibacterial activity in vitro, agar plate dilution method (MIC). Format: cell-based. The note with it: Mueller Hinton agar, 10^6 cells/ml, 37° C., 20 hours. How it is done: as §2
Setting [8] is: in Mus musculus, Table 2-b, read-out: ED50.
Where [9] appears, read: in Mus musculus, Table 2-a, read-out: ED50.
The mark [10] stands for this setting: Serratia marcescens, 274, in Mus musculus, Table 2-a.

≈ marks a conversion by molar mass, not a printed value. Like-named read-outs stand apart in the source and are kept apart here.

We go through six compounds from patent US5001121A, “Cephalosporin compounds and pharmaceutical compositions thereof” (Mochida Pharmaceutical Co., Ltd., priority 1985, dated 1991).

Regarding `Nc1nc(/C(=N/OC(C(=O)O)c2ccc(O)c(O)c2)C(=O)N[C@@H]2C(=O)N3C(C(=O)O)=C(CSc4cc(C(=O)O)c5nnnn5n4)CS[C@H]23)cs1` (stereo partly drawn) [Compound 13, (6R,7R)-7-[2-(2-amino-4-thiazolyl)-2-[Z-[carboxy(3,4-dihydroxyphenyl)methyl]oxyimino]acetamido]-3-[(8-carboxytetrazolo [1,5-b]pyridazin-6-yl)thiomethyl]-8-oxo-5-thia-1-azabicyclo[4.2.0]oct-2-ene-2-carboxylic acid], in the data set on Serratia marcescens 274 (setting [8]), the ED50 – broadly, the midpoint of the dose-response relation – was 1.05 mg/kg. For the same compound, the MIC (usually the lowest concentration that inhibits growth of the organism) in data set [1] was 0.2 µg/mL (≈ 0.269 µM); in data set [2], 0.78 µg/mL (≈ 1.05 µM); with Escherichia coli 67, 0.2 µg/mL (≈ 0.269 µM); in data set [3], less than 0.05 µg/mL; in data set [4] it was 1.56 µg/mL (≈ 2.09 µM). Besides, the LD50 (as a rule, the dose at which mortality reaches 50%) in “LD50, Probit method” was greater than 1000 mg/kg.

In the case of `Cc1cc(SCC2=C(C(=O)O)N3C(=O)[C@@H](NC(=O)/C(=N\OC(=O)c4cc(O)c(O)cc4C)c4csc(N)n4)[C@H]3SC2)n2nc(C(=O)O)nc2n1` [Compound 3], the ED50 in data set [5] (setting [9]) turned out to be 407 mg/kg; in [6] (Table 2-a, read-out: ED50), 1.79 mg/kg; in the data set with Serratia marcescens 274 (setting [10]), 1.73 mg/kg. The MIC is less than 0.05 µg/mL in data set [1], 0.2 µg/mL (≈ 0.27 µM) in data set [2], less than 0.05 µg/mL against Escherichia coli 67 and less than 0.05 µg/mL in data set [3].

Regarding `Cc1cc(SCC2=C(C(=O)O)N3C(=O)[C@@H](NC(=O)/C(=N\O[C@H](C(=O)O)c4ccc(O)c(O)c4)c4csc(N)n4)[C@H]3SC2)n2nc(C(=O)O)nc2n1` [Compound 9, (6R,7R)-7-[2-(2-amino-4-thiazolyl)-2-[Z-[(S)-carboxy(3,4-dihydroxyphenyl)-methyl]oxyimino]acetamido]-3-[(2-carboxy-5-methyl-s-triazolo [1,5-a]pyrimidin-7-yl)thiomethyl]-8-oxo-5-thia-1-azabicyclo[4.2.0]oct-2-ene-2-carboxylic acid], the ED50 amounted to 95 mg/kg in data set [5] (setting [8]); 1.73 mg/kg in the data set with Escherichia coli 111 (Table 2-b, read-out: ED50); 3.34 mg/kg in data set [6] (Table 2-b, read-out: ED50); 0.47 mg/kg in the data set on Serratia marcescens 274 (setting [8]). In addition, the MIC was 0.05 µg/mL (≈ 0.066 µM) in data set [1]; 1.56 µg/mL (≈ 2.06 µM) in data set [2]; 0.1 µg/mL (≈ 0.132 µM) against Escherichia coli 67; 6.25 µg/mL (≈ 8.25 µM) in data set [7]; less than 0.05 µg/mL in data set [3]; 0.78 µg/mL (≈ 1.03 µM) in data set [4]. In the data set “LD50, Probit method”, this compound displayed an LD50 greater than 1000 mg/kg.

Consider `CC(C)(O/N=C(\C(=O)N[C@@H]1C(=O)N2C(C(=O)[O-])=C(C[n+]3ccccc3)CS[C@H]12)c1csc(N)n1)C(=O)O` [CAZ, Ceftazidime, reference compound], for which the ED50 in data set [5] (Pseudomonas aeruginosa, IFO3445, in Mus musculus, Table 2-a) was 229 mg/kg; in [5] (Pseudomonas aeruginosa, IFO3445, in Mus musculus, Table 2-b), 230 mg/kg; in the data set with Escherichia coli 111 (Table 2-a, read-out: ED50) it was 6.55 mg/kg; in the data set with Escherichia coli 111 (Table 2-b), 3.91 mg/kg; in data set [6] (Table 2-a) it was greater than 100 mg/kg; in data set [6] (Table 2-b) it was greater than 2100 mg/kg. In addition, the ED50 in the data set on Serratia marcescens 274 (setting [10]) worked out at 4.23 mg/kg; in the data set on Serratia marcescens 274 (Serratia marcescens, 274, in Mus musculus, Table 2-b) it was 6.41 mg/kg.

On to `CC(=O)Oc1cc(C)c(C(=O)O/N=C(\C(=O)N[C@@H]2C(=O)N3C(C(=O)O)=C(CSc4cc(C)nc5nc(C(=O)O)nn45)CS[C@H]23)c2csc(N)n2)cc1OC(C)=O` [Compound 2, (6R,7R)-7-[2-(2-amino-4-thiazolyl)-2-[Z-(4,5-diacetoxy-2-methylbenzoyl)oxyimino]acetamido]-3-[(2-carboxy-5-methyl-s-triazolo [1,5-a]pyrimidin-7-yl)thiomethyl]-8-oxo-5-thia-1-azabicyclo[4.2.0]oct-2-ene-2-carboxylic acid], for which the ED50 turned out to be 212 mg/kg in [5] (setting [9]); 2.28 mg/kg with Escherichia coli 111 (Table 2-a, read-out: ED50); 7.9 mg/kg in data set [6] (Table 2-a, read-out: ED50); 3.08 mg/kg in the data set on Serratia marcescens 274 (setting [9]). Further, the MIC in data set [1] was less than 0.05 µg/mL; in data set [2], 0.2 µg/mL (≈ 0.242 µM); in the data set with Escherichia coli 67, less than 0.05 µg/mL; in data set [3] it was less than 0.05 µg/mL; in data set [4] it was 0.78 µg/mL (≈ 0.945 µM). Also, in “LD50, Probit method”, the LD50 was greater than 1000 mg/kg.

Consider `Cn1nnnc1SCC1=C(C(=O)O)N2C(=O)[C@@H](NC(=O)[C@H](O)c3ccccc3)[C@H]2SC1` [CMD, Cefamandole, reference compound], for which the ED50 in data set [6] (Table 2-a, read-out: ED50) came out at 31 mg/kg.
